We go through four compounds from paper PMC8000041, “New Insights into the Metabolism of the Flavanones Eriocitrin and Hesperidin: A Comparative Human Pharmacokinetic Study” (Antioxidants, 2021).

On the set-up of series [1]: method as in PMID 28970059. The following applies: eriocitrin vs. hesperidin ref 28; cited from earlier work.
A short description of series [2]: Urinary excretion of flavanone-derived metabolites after single intake of lemon or orange extract (UPLC-ESI-QTOF-MS). The following applies: for Occurrence Urine LE (number of volunteers in whom the metabolite was detected): after consuming lemon extract; for Occurrence Urine LE (number of volunteers in whom the metabolite was detected) / Occurrence Urine OE (number of volunteers in whom the metabolite was detected): n = 16 volunteers; for Occurrence Urine OE (number of volunteers in whom the metabolite was detected): after consuming orange extract; for Urinary excretion F1: lemon extract (3.1 g, 260 mg eriocitrin), urine fraction 0-4 h; for Urinary excretion F2: urine fraction 4-8 h; for Urinary excretion F3: urine fraction 8-10 h; for Urinary excretion F4: urine fraction 10-24 h. It counts as in vivo, human. The method, boiled down: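 Randomized double-blind crossover, single oral dose of orange extract (260 mg hesperidin) or lemon extract (260 mg eriocitrin) with 2-week washout and flavanone-restricted diet. Urinary flavanone conjugates by targeted UPLC-ESI-QTOF-MS (0.01 m/z window), quantified against standards or, for eriodictyol/homoeriodictyol conjugates, via UV-based relative response factors.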

Series [3] is described as follows: Plasma metabolites and pharmacokinetics after single intake of lemon or orange extract (UPLC-ESI-QTOF-MS, non-compartmental analysis). It counts as in vivo, human. The settings on record: for Occurrence Plasma LE (number of volunteers in whom the metabolite was detected): after consuming lemon extract; for Occurrence Plasma LE (number of volunteers in whom the metabolite was detected) / Occurrence Plasma OE (number of volunteers in whom the metabolite was detected): n = 16 volunteers; for Occurrence Plasma OE (number of volunteers in whom the metabolite was detected): after consuming orange extract; for AUC(0-t) / Cmax / Tmax: after lemon extract, mean ± SD. In a few lines:
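Randomized double-blind crossover single-dose trial with a 2-week washout: orange extract (1.95 g, 260 mg hesperidin) or lemon extract (3.1 g, 260 mg eriocitrin) in capsules. Plasma metabolites were measured by targeted UPLC-ESI-QTOF-MS against standards, or via UV-based relative response factors. PK parameters came from non-compartmental analysis.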

Turning to `C[C@@H]1O[C@@H](OC[C@H]2O[C@@H](Oc3cc(O)c4c(c3)O[C@H](c3ccc(O)c(O)c3)CC4=O)[C@H](O)[C@@H](O)[C@@H]2O)[C@H](O)[C@H](O)[C@H]1O` [eriocitrin, Eriocitrin], in series [1], the Solubility result is reported as “higher solubility”.
Consider Hesperetin sulfoglucuronide [M11], for which, in series [2], the “Occurrence Urine LE (number of volunteers in whom the metabolite was detected)” value (from here on “Occurrence Urine LE”) came out at 0 and the “Occurrence Urine OE (number of volunteers in whom the metabolite was detected)” value (from here on “Occurrence Urine OE”) was found to be 7. Besides, in series [3], the “Occurrence Plasma LE (number of volunteers in whom the metabolite was detected)” value (from here on “Occurrence Plasma LE”) was 0 and the “Occurrence Plasma OE (number of volunteers in whom the metabolite was detected)” value (shortened to “Occurrence Plasma OE”) is 8.
A word on the AUC(0-t): it is exposure summed from dosing to a finite time, without extrapolation to infinity. In general, Cmax refers to the highest concentration seen after dosing. As a reminder, the Tmax is the time at which the peak concentration occurs. Consider Homoeriodictyol glucuronide [M6], for which the “Urinary excretion F1” value in series [2] (mean ± SD) stood at 13.9 ± 16.2 µg/mg creatinine. Moreover, the “Urinary excretion Total F” value in series [2] (lemon extract, sum of fractions F1-F4 (24 h), mean ± SD) stood at 106 ± 171 µg/mg creatinine. Further, in series [2] (lemon extract, mean ± SD), the “Urinary excretion F2” value came out at 48.1 ± 90.0 µg/mg creatinine, the “Urinary excretion F3” value turned out to be 37.2 ± 56.9 µg/mg creatinine and the “Urinary excretion F4” value stood at 6.8 ± 8.0 µg/mg creatinine. Also, in series [2], the “Occurrence Urine LE” value is reported as 16 and the “Occurrence Urine OE” value was 3. In series [3], the “Occurrence Plasma LE” value worked out at 16, the “Occurrence Plasma OE” value is 3, the AUC(0-t) amounted to 3.133 ± 4.17 µM·h and the Cmax came out at 780 ± 863 nM. Further, the Tmax in series [3] is given as 6.1 ± 2.4 h.
As for Homoeriodictyol sulfate [M10], in series [2] (mean ± SD), the “Urinary excretion F1” value stood at 3.8 ± 3.2 µg/mg creatinine. In series [2] (lemon extract, mean ± SD), the “Urinary excretion F2” value is listed as 4.0 ± 5.5 µg/mg creatinine, the “Urinary excretion F3” value is 3.6 ± 4.1 µg/mg creatinine and the “Urinary excretion F4” value was determined as 0.5 ± 0.4 µg/mg creatinine. In series [2], the “Occurrence Urine LE” value amounted to 16 and the “Occurrence Urine OE” value is 0. For the same compound, in series [3], the “Occurrence Plasma LE” value was 16, the “Occurrence Plasma OE” value was 3, the exposure AUC(0-t) was 1.778 ± 2.257 µM·h and the Cmax was 479 ± 524 nM. For the same compound, in series [3], the Tmax came to 6.5 ± 2.2 h.
